What all share (assay type): cell-based
One test has as its system S. aureus MMX 3035 cErmA. Briefly: MIC (broth microdilution or agar dilution, CLSI). The following applies: Staphylococcus aureus, MMX3035CERMA, read-out: MIC. The method, boiled down:
(§1)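 Inoculum for broth microdilution was 5×10^5 CFU/mL final, prepared from overnight 35° C blood-agar subcultures (separate handling for streptococcal and anaerobic strains); MICs read by CLSI broth microdilution or agar dilution.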

The test system of test [1] is S. aureus ATCC BAA-1707 (MRSA). The experiment in a line: MIC (broth microdilution or agar dilution, CLSI). The following applies: Staphylococcus aureus; S. aureus HAV#016, ATCC BAA-1707; MRSA; read-out: MIC. The method, boiled down:
as §1
Background: In broth dilution the organism is exposed to a series of concentrations in liquid medium.

The subject of another test is A. baumannii ATCC 19606. Briefly: MIC (broth microdilution or agar dilution, CLSI). The following applies: Acinetobacter baumannii, ATCC19606; A. baumanii HAV#010, ATCC 19606; read-out: MIC. The method, boiled down:
as §1

The next test has as its system K. oxytoca Clinical. Briefly: MIC (broth microdilution or agar dilution, CLSI). The following applies: Klebsiella oxytoca; K. oxytoca HAV#450; Clinical; read-out: MIC. The method, boiled down:
as §1

A further test relates to E. coli LptD. Briefly: MIC (broth microdilution or agar dilution, CLSI). The following applies: Escherichia coli, E. coli HAV#040; LptD; read-out: MIC. The method, boiled down: as §1
The subject of another test is S. aureus ATCC 29213. The experiment in a line: MIC (broth microdilution or agar dilution, CLSI). The following applies: Staphylococcus aureus, read-out: MIC. The method, boiled down: as §1
For another test, the system named is E. coli ATCC 25922. The experiment in a line: MIC (broth microdilution or agar dilution, CLSI). The following applies: Escherichia coli, ATCC25922, read-out: MIC. Summed up: as §1
The test system of test [2] is S. pyogenes MMX 946; cErmB. The experiment in a line: MIC (broth microdilution or agar dilution, CLSI). The following applies: Streptococcus pyogenes, cErmB, read-out: MIC. Summed up: as §1
The subject of test [3] is S. pneumoniae MMX 3028 cErmB. The experiment in a line: MIC (broth microdilution or agar dilution, CLSI). The following applies: Streptococcus pneumoniae, MMX3028CERMB, read-out: MIC. Summed up:
as §1

Another test relates to S. pyogenes ATCC 19615. The experiment in a line: MIC (broth microdilution or agar dilution, CLSI). The following applies: Streptococcus pyogenes, read-out: MIC. Summed up: as §1
For test [4], the system named is E. faecalis MMX 847; cErmB. Briefly: MIC (broth microdilution or agar dilution, CLSI). The following applies: Enterococcus faecalis, cErmB, read-out: MIC. The method, boiled down:
as §1

Another test has as its system K. pneumoniae ATCC 10031. The experiment in a line: MIC (broth microdilution or agar dilution, CLSI). The following applies: Klebsiella pneumoniae, ATCC10031, K. pneumoniae HAV#008, ATCC 10031; read-out: MIC. The method, boiled down: as §1
The next test has as its system S. aureus hVISA. The experiment in a line: MIC (broth microdilution or agar dilution, CLSI). The following applies: Staphylococcus aureus; S. aureus HAV#204, hVISA; read-out: MIC. Summed up:
as §1

For a further test, the system named is S. pneumoniae ATCC 49619. The experiment in a line: MIC (broth microdilution or agar dilution, CLSI). The following applies: Streptococcus pneumoniae, read-out: MIC. Summed up: as §1
The next test relates to E. faecalis ATCC 29212. The experiment in a line: MIC (broth microdilution or agar dilution, CLSI). The following applies: Enterococcus faecalis, read-out: MIC. The method, boiled down:
as §1

The test system of test [5] is S. pneumoniae MMX 3031 cMefA. The experiment in a line: MIC (broth microdilution or agar dilution, CLSI). The following applies: Streptococcus pneumoniae, MMX3031CMEFA, read-out: MIC. The method, boiled down: as §1
The subject of another test is S. pneumoniae ATCC 6303. Briefly: MIC (broth microdilution or agar dilution, CLSI). The following applies: Streptococcus pneumoniae, ATCC6303; S. pneumoniae HAV#351, ATCC 6303; read-out: MIC. The method, boiled down:
as §1

The test system of the next test is H. influenzae ATCC 49247. Briefly: MIC (broth microdilution or agar dilution, CLSI). The following applies: Haemophilus influenzae, ATCC49247, read-out: MIC. Summed up: as §1
For the next test, the system named is S. aureus BAA 977 iErmA. The experiment in a line: microbe, parasite or virus in culture. The following applies: Staphylococcus aureus. Summed up: as §1
In another test the test system is E. coli ΔTolC. The experiment in a line: microbe, parasite or virus in culture. The following applies: Escherichia coli, E. coli HAV#038; ΔTolC. Summed up: as §1
For another test, the system named is S. aureus MP-549 msrA. The experiment in a line: microbe, parasite or virus in culture. The following applies: Staphylococcus aureus, MP549MSRA. The method, boiled down: as §1
For another test, the system named is E. coli armA. Briefly: microbe, parasite or virus in culture. The following applies: Escherichia coli, E. coli HAV#056; Clinical, armA. The method, boiled down: as §1
Test [6] concerns broad panel of different clinical isolates. Briefly: microbe, parasite or virus in culture. The method, boiled down: as §1
The next test deals with E. coli MP-9 ΔTolC. Briefly: MIC (broth microdilution or agar dilution, CLSI). The following applies: Escherichia coli. The method, boiled down: as §1
For test [7], the system named is E. coli MP-74 LptD mutant. Briefly: MIC (broth microdilution or agar dilution, CLSI). The following applies: Escherichia coli. Summed up:
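MICs were measured by CLSI broth microdilution or agar dilution over 128-0.06 μg/mL test compound at 2.5% final DMSO, in triplicate. Non-streptococcal, aerobic strains were grown overnight at 35° C on sheep blood agar, suspended in cation-adjusted Mueller-Hinton broth to 0.5 McFarland, and diluted to 5×10^5 CFU/mL.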

Where [8] appears, read: ATCC29213, S. aureus ATCC 29213.
The mark [9] stands for this setting: ATCC19615, S. pyogenes ATCC 19615.
[10] abbreviates: ATCC49619, S. pneumoniae ATCC 49619.
The mark [11] stands for this setting: ATCC29212, E. faecalis ATCC 29212.

The values below come from patent US20230203081A1, “LINCOSAMIDE ANTIBIOTICS AND USES THEREOF” (President and Fellows of Harvard College, priority 2020, published 2023).

Converted amounts (≈) assume the structure as drawn. Read-outs that look alike come from different tables or passages of the source. Some results are limits rather than exact numbers.

For `CC[C@H]1OC(=O)[C@H](C)[C@@H](O[C@H]2C[C@@](C)(OC)[C@@H](O)[C@H](C)O2)[C@H](C)[C@@H](O[C@@H]2O[C@H](C)C[C@H](N(C)C)[C@H]2O)[C@](C)(O)C[C@@H](C)C(=O)[C@H](C)[C@@H](O)[C@]1(C)O` [Erythromycin], the MIC with S. aureus MMX 3035 cErmA (S. aureus HAV#031, MMX 3035, cErmA) was more than 64 µg/mL; in test [1], 0.5 µg/mL (≈ 0.681 µM); in the test on A. baumannii ATCC 19606, 64 µg/mL (≈ 87.2 µM); in the test on K. oxytoca Clinical it was more than 64 µg/mL; in the test with E. coli LptD, 1 µg/mL (≈ 1.36 µM); with S. aureus ATCC 29213 (ATCC29213, S. aureus HAV#001, ATCC 29213, MP-549) it was 0.5 µg/mL (≈ 0.681 µM). The MIC is 64 µg/mL (≈ 87.2 µM) in the test on E. coli ATCC 25922 (E. coli HAV#006, ATCC 25922); more than 64 µg/mL in test [2] (S. pyogenes HAV#035, MMX 946, mac-resistant); more than 64 µg/mL in test [3] (S. pneumoniae HAV#033, MMX 3028, cErmB); less than 0.06 µg/mL in the test on S. pyogenes ATCC 19615 (ATCC19615, S. pyogenes HAV#004, ATCC 19615); more than 64 µg/mL in test [4] (E. faecalis HAV#036, MMX 847, mac-resistant); 8 µg/mL (≈ 10.9 µM) in the test with K. pneumoniae ATCC 10031. The MIC was more than 64 µg/mL in the test with S. aureus hVISA; not above 0.06 µg/mL with S. pneumoniae ATCC 49619 (ATCC49619, S. pneumoniae HAV#003, ATCC 49619); 2 µg/mL (≈ 2.73 µM) in the test on E. faecalis ATCC 29212 (ATCC29212, E. faecalis HAV#005, ATCC 29212); 8 µg/mL (≈ 10.9 µM) in test [5] (S. pneumoniae HAV#034, MMX 3031, cMefA); 0.5 µg/mL (≈ 0.681 µM) in the test with S. pneumoniae ATCC 6303; 8 µg/mL (≈ 10.9 µM) in the test with H. influenzae ATCC 49247 (H. influenzae HAV#007, ATCC 49247). The MIC in the test with S. aureus BAA 977 iErmA (BAA-977 / MRSA) was more than 64 µg/mL; in the test on E. coli ΔTolC it was 4 µg/mL (≈ 5.45 µM); in the test with S. aureus MP-549 msrA (S. aureus HAV#032, MP-549, MSR(A)) it was 64 µg/mL (≈ 87.2 µM); in the test on E. coli armA it was 32 µg/mL (≈ 43.6 µM); in test [6] (Enterococcus faecalis, VRE, E. faecalis HAV#251, Clinical VRE), more than 64 µg/mL; in [6] (Escherichia coli, E. coli HAV#501, Clinical), more than 64 µg/mL. For the same compound, the MIC is more than 64 µg/mL in test [6] (Klebsiella pneumoniae, K. pneumoniae HAV#041, Clinical, KPC); 0.5 µg/mL (≈ 0.681 µM) in test [6] (Staphylococcus aureus, MRSA, S. aureus HAV#017, MRSA Col(Colindale, England)); 32 µg/mL (≈ 43.6 µM) in [6] (Staphylococcus aureus, S. aureus HAV#216, Clinical, cfr); 64 µg/mL (≈ 87.2 µM) in test [6] (Staphylococcus aureus, S. aureus HAV#217, cfr); more than 64 µg/mL in [6] (Staphylococcus aureus, VISA, S. aureus HAV#203, Clinical (VISA)); 8 µg/mL (≈ 10.9 µM) in [6] (Staphylococcus epidermidis, S. epidermidis HAV# 275 Clinical, cfr). This compound yielded an MIC in [6] (Staphylococcus epidermidis, S. epidermidis HAV# 276, cfr) of more than 128 µg/mL.

For `CSC1O[C@H]([C@H](NC(=O)[C@@H]2[C@@H]3OCC[C@@H](C4CCCC4)C[C@H]3CN2C)[C@H](C)Cl)CC(O)[C@H]1O` (stereo partly drawn) [FSA-513001b], the MIC with S. aureus MMX 3035 cErmA (S. aureus MMX 3035 cErmA) was determined as 32 µg/mL (≈ 63.4 µM); in the test with S. aureus ATCC 29213 (setting [8]) it was 0.12 µg/mL (≈ 0.238 µM); in the test on E. coli ATCC 25922 (E. coli ATCC 25922) it was 64 µg/mL (≈ 127 µM); in test [2] (S. pyogenes MMX 946), 16 µg/mL (≈ 31.7 µM); in [3] (S. pneumoniae MMX 3028 cErmB), 16 µg/mL (≈ 31.7 µM); in the test with S. pyogenes ATCC 19615 (setting [9]), 0.06 µg/mL (≈ 0.119 µM). The MIC is 16 µg/mL (≈ 31.7 µM) in [4] (E. faecalis MMX 847); 2 µg/mL (≈ 3.96 µM) in the test on E. coli MP-9 ΔTolC; 0.06 µg/mL (≈ 0.119 µM) with S. pneumoniae ATCC 49619 (setting [10]); 0.12 µg/mL (≈ 0.238 µM) in the test on E. faecalis ATCC 29212 (setting [11]); not above 0.06 µg/mL in test [5] (S. pneumoniae MMX 3031 cMefA); 4 µg/mL (≈ 7.92 µM) in the test on H. influenzae ATCC 49247 (H. influenzae ATCC 49247). Also, the MIC in test [7] is 4 µg/mL (≈ 7.92 µM); with S. aureus BAA 977 iErmA (BAA977) it was 0.12 µg/mL (≈ 0.238 µM); with S. aureus MP-549 msrA (S. aureus MP-549 msrA) it was 0.12 µg/mL (≈ 0.238 µM).

Consider `CSC1O[C@H]([C@H](NC(=O)[C@@H]2[C@@H]3OCC[C@H](C4CCCCC4)C[C@H]3CN2C)[C@H](C)Cl)CC(O)[C@H]1O` (stereo partly drawn) [FSA-513002a], for which the MIC in the test with S. aureus ATCC 29213 (setting [8]) is 1 µg/mL (≈ 1.93 µM); in the test on E. coli ATCC 25922 (E. coli ATCC 25922), more than 64 µg/mL; in the test with S. pyogenes ATCC 19615 (setting [9]), 1 µg/mL (≈ 1.93 µM); against E. coli MP-9 ΔTolC it was 64 µg/mL (≈ 123 µM); in the test on S. pneumoniae ATCC 49619 (setting [10]), 0.5 µg/mL (≈ 0.963 µM); in the test on E. faecalis ATCC 29212 (setting [11]), 2 µg/mL (≈ 3.85 µM). Further, the figures for the MIC (in the test on H. influenzae ATCC 49247 (H. influenzae ATCC 49247); in [7]) were more than 64 µg/mL and 64 µg/mL (≈ 123 µM), respectively.
